Reference: US20260116921A1, “PEPTIDE INHIBITORS OF INTERLEUKIN-23 RECEPTOR AND THEIR USE TO TREAT INFLAMMATORY DISEASES” (priority 2018, published 2026)

Target: T1, IL-23R (Homo sapiens, UniProt Q5VWK5)
T1 sequence (Q5VWK5 24-629): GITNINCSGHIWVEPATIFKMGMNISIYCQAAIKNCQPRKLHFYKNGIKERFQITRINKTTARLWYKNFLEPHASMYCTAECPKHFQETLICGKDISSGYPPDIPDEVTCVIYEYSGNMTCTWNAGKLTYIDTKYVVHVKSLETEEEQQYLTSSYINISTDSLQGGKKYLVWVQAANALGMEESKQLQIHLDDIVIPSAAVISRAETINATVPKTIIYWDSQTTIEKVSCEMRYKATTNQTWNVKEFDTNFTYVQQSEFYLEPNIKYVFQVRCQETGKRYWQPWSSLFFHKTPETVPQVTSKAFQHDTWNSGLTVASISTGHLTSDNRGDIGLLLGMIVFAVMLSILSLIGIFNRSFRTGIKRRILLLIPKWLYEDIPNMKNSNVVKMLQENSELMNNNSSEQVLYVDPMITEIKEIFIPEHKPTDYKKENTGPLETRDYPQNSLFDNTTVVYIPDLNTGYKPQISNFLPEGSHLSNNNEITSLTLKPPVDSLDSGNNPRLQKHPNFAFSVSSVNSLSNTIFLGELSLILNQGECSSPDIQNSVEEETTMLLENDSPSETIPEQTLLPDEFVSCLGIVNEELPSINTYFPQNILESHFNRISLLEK
Experiment: DB cells IL23R pSTAT3 cell assay (pStat3 HTRF)
Type: cell-based
Description: Human ELISA indicates the IL23-IL23R competitive binding assay described below, Rat ELISA indicates the rat IL-23R competitive binding ELISA assay described below, and pStat3HTRF indicates the DB cells IL-23R pSTAT3 cell assay described below. The peptides depicted in Table E1 are cyclized via a disulfide bridge formed between two Pen residues in these peptides. The peptides depicted in Table E2 are cyclized via a thioether bond between the indicated amino acid residues. Table E2 provides an illustrative structure depicting thioether cyclization, which is indicated in the table by the term “cyclo,” with the cyclic region bracketed immediately following the term “cyclo.” For certain peptides, the residue Abu is present where indicated, whereas in other embodiments, e.g., those related to the non-cyclized form, the Abu may be referred to as a hSer(Cl) or homoSer residue.
DB Cells IL23R pSTAT3 Cell Assay
IL-23 plays a central role in supporting and maintaining Th17 differentiation in vivo. This process is thought to be mediated primarily through the Signal Transducer and Activator of Transcription 3 (STAT3), with phosphorylation of STAT3 (to yield pSTAT3) leading to upregulation of RORC and pro-inflammatory IL-17. This cell assay examines the levels of pSTAT3 in IL-23R-expressing DB cells when stimulated with IL-23 in the presence of test compounds. Serial dilutions of test peptides and IL-23 (Humanzyme #HZ-1261) at a final concentration of 0.5 nM, were added to each well in a 96 well tissue culture plate (Corning #CLS3894). DB cells (ATCC #CRL-2289), cultured in RPMI-1640 medium (Thermo Scientific #11875093) supplemented with 10% FBS, were added at 5×10E5 cells/well and incubated for 30 minutes at 37° C. in a 5% CO2 humidified incubator. Changes in phospho-STAT3 levels in the cell lysates were detected using the Cisbio HTRF pSTAT3 (Tyr705) Cellular Assay Kit (Cisbio #62AT3PEH), according to manufacturer's Two Plate Assay protocol.

Q: Which IC50 does the source give for `CC(=O)NCCCC[C@H](NC(=O)[C@](C)(CC(C)C)NC(=O)[C@H](Cc1ccc2ccccc2c1)NC(=O)[C@H](Cc1ccc(OCCN)cc1)NC(=O)[C@H]1NC(=O)[C@H](CCC(N)=O)NC(=O)[C@H](Cc2c[nH]c3ccc(Cl)cc23)NC(=O)[C@H]([C@@H](C)O)NC(=O)[C@H](CC(N)=O)NC(=O)[C@@H](NC(C)=O)C(C)(C)SSC1(C)C)C(=O)N[C@@H](CC(N)=O)C(=O)N[C@@H](CC(N)=O)C(N)=O` [compound 1] here?
A: 10 to 100 nM

Q: How did the IC50 turn out when `CC(=O)NCCCC[C@H](NC(=O)[C@](C)(CC(C)C)NC(=O)[C@H](Cc1ccc2ccccc2c1)NC(=O)[C@H](Cc1ccc(OCCN)cc1)NC(=O)[C@H]1NC(=O)[C@H](CCC(N)=O)NC(=O)[C@H](Cc2c[nH]c3cc(F)ccc23)NC(=O)[C@H]([C@@H](C)O)NC(=O)[C@H](CC(N)=O)NC(=O)[C@@H](NC(C)=O)C(C)(C)SSC1(C)C)C(=O)N[C@@H](CC(N)=O)C(=O)N[C@@H](CC(N)=O)C(N)=O` [compound 3] was run?
A: 10 to 100 nM

Q: How did the IC50 turn out when `COc1ccc2[nH]cc(C[C@@H]3NC(=O)[C@H]([C@@H](C)O)NC(=O)[C@H](CC(N)=O)NC(=O)[C@@H](NC(C)=O)C(C)(C)SSC(C)(C)[C@@H](C(=O)N[C@@H](Cc4ccc(OCCN)cc4)C(=O)N[C@@H](Cc4ccc5ccccc5c4)C(=O)N[C@@](C)(CC(C)C)C(=O)N[C@@H](CCCCNC(C)=O)C(=O)N[C@@H](CC(N)=O)C(=O)N[C@@H](CC(N)=O)C(N)=O)NC(=O)[C@H](CCC(N)=O)NC3=O)c2c1` [compound 9] was run?
A: > 100 nM

Q: With `CC(=O)NCCCC[C@H](NC(=O)[C@](C)(CC(C)C)NC(=O)[C@H](Cc1ccc2ccccc2c1)NC(=O)[C@H](Cc1ccc(OCCN)cc1)NC(=O)[C@H]1NC(=O)[C@H](CCC(N)=O)NC(=O)[C@H](Cc2c[nH]c3ccc(O)cc23)NC(=O)[C@H]([C@@H](C)O)NC(=O)[C@H](CC(N)=O)NC(=O)[C@@H](NC(C)=O)C(C)(C)SSC1(C)C)C(=O)N[C@@H](CC(N)=O)C(=O)N[C@@H](CC(N)=O)C(N)=O` [compound 10] as the molecule, how does the IC50 read?
A: > 100 nM

Q: Which IC50 does the source give for `CC(=O)NCCCC[C@H](NC(=O)[C@](C)(CC(C)C)NC(=O)[C@H](Cc1ccc2ccccc2c1)NC(=O)[C@H](Cc1ccc(OCCN)cc1)NC(=O)[C@H]1NC(=O)[C@H](CCC(N)=O)NC(=O)[C@H](Cc2c[nH]c3ccc(Br)cc23)NC(=O)[C@H]([C@@H](C)O)NC(=O)[C@H](CC(N)=O)NC(=O)[C@@H](NC(C)=O)C(C)(C)SSC1(C)C)C(=O)N[C@@H](CC(N)=O)C(=O)N[C@@H](CC(N)=O)C(N)=O` [compound 11] here?
A: > 100 nM

Q: For `CC(=O)NCCCC[C@H](NC(=O)[C@](C)(CC(C)C)NC(=O)[C@H](Cc1c[nH]c2ccc(Cl)cc12)NC(=O)[C@H](Cc1ccc(OCCN)cc1)NC(=O)[C@H]1NC(=O)[C@H](CCC(N)=O)NC(=O)[C@H](Cc2c[nH]c3ccccc23)NC(=O)[C@H]([C@@H](C)O)NC(=O)[C@H](CC(N)=O)NC(=O)[C@@H](NC(C)=O)C(C)(C)SSC1(C)C)C(=O)N[C@@H](CC(N)=O)C(=O)N[C@@H](CC(N)=O)C(N)=O` [compound 12], which IC50 is on record?
A: > 100 nM

Q: How did the IC50 turn out when `COc1cccc2[nH]cc(C[C@H](NC(=O)[C@H](Cc3ccc(OCCN)cc3)NC(=O)[C@H]3NC(=O)[C@H](CCC(N)=O)NC(=O)[C@H](Cc4c[nH]c5ccccc45)NC(=O)[C@H]([C@@H](C)O)NC(=O)[C@H](CC(N)=O)NC(=O)[C@@H](NC(C)=O)C(C)(C)SSC3(C)C)C(=O)N[C@@](C)(CC(C)C)C(=O)N[C@@H](CCCCNC(C)=O)C(=O)N[C@@H](CC(N)=O)C(=O)N[C@@H](CC(N)=O)C(N)=O)c12` [compound 15] was run?
A: > 100 nM

Q: `CC(=O)NCCCC[C@H](NC(=O)[C@](C)(CC(C)C)NC(=O)[C@H](Cc1c[nH]c2cc(C)ccc12)NC(=O)[C@H](Cc1ccc(OCCN)cc1)NC(=O)[C@H]1NC(=O)[C@H](CCC(N)=O)NC(=O)[C@H](Cc2c[nH]c3ccccc23)NC(=O)[C@H]([C@@H](C)O)NC(=O)[C@H](CC(N)=O)NC(=O)[C@@H](NC(C)=O)C(C)(C)SSC1(C)C)C(=O)N[C@@H](CC(N)=O)C(=O)N[C@@H](CC(N)=O)C(N)=O` [compound 16] was tested. Which IC50 did it give?
A: 1 to 10 nM
